Each structure is given as a SMILES string. Some results are limits rather than exact numbers.

The values below come from patent US20140011799A1 (Bristol-Myers Squibb Company, priority 2012, published 2014).

The test deals with T1, Endothelial lipase (EL) (Homo sapiens, UniProt Q9Y5X9).
T1 construct: HT-1080 cells that were transformed using RAGE technology (Athersys) to overexpress endogenous EL; endogenous in cells; conditioned medium used
T1 sequence (Q9Y5X9 21-500): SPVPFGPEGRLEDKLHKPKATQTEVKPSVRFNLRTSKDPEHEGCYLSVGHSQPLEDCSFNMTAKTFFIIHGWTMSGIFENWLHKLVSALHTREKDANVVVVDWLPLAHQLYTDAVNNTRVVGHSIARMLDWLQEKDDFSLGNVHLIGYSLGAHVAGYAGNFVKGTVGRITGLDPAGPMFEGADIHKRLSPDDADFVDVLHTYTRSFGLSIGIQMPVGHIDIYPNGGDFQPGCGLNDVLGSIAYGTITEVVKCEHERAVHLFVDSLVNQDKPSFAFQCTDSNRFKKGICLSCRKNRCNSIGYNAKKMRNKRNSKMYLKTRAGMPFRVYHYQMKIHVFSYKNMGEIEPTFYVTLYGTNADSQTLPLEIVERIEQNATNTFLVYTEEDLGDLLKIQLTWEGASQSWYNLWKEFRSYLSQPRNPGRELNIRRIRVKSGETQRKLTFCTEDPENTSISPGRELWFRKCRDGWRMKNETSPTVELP
Briefly: Endothelial lipase (EL) enzymatic assay, fluorescent substrate A10070 in DMPG vesicles. The test is classed as biochemical. Particulars: EL from conditioned media of HT-1080 cells; compound preincubated 30 min at 37° C; read-out: EL IC50. As for the experimental part:
Endothelial lipase (EL) and hepatic lipase (HL) activities were measured using a fluorescent substrate, A10070, (Invitrogen, CA) doped into an artificial vesicle containing DMPG (Avanti Polar Lipids) as the excipient. Vesicles were prepared by combining 571 μL of 29 mM DMPG in a 1:1 mixture of MeOH and CHCl3 with 2000 μL of 1 mM A10070 in a 1:1 mixture of MeOH and CHCl3. The mixture was dried under nitrogen in multiple vials then resuspended in 20 mL total volume of 50 mM HEPES pH 8.0 buffer containing 50 mM NaCl and 0.2 mM EDTA. The sample was allowed to sit at room temperature for 15 min and then was sonicated 3×4 mins on ice with a Branson Sonicator using duty cycle 1. This preparation provides vesicles with a mole fraction of 0.11 for the FRET substrate.
The enzymatic assay was measured using 384-well white Optiplates. Each well contained 20 μL of assay buffer (50 mM HEPES pH 8.0, 50 mM NaCl and 1 mM CaCl2) and 0.25 μL of a DMSO solution containing a compound of interest. EL or HL (10 μL) was added and allowed to incubate with the compound for 30 min at 37° C. The source of EL was conditioned media obtained from HT-1080 cells that were transformed using RAGE technology (Athersys) to overexpress endogenous EL, and HL was partially purified from conditioned media obtained from COS cells overexpressing HL. The reaction was started by the addition of 10 μL of a 1:10 dilution of vesicles. The final total reaction volume was […]. The reaction rates were measured on a Gemini plate reader with an excitation wavelength of 490 nm and an emission wavelength of 530 nm. Readings were taken over a period of 60 minutes, and the slope between 300 and 900 secs of the readout was used to calculate the rate of the reaction.
As to `Cc1nccn1-c1nc(-c2ccc3nc(C(c4nnc(CC5SC(=O)NC5=O)o4)S(C)(=O)=O)sc3c2)cs1` (centres unmarked) [Example 25, 5-((5-((6-(2-(2-methyl-1H-imidazol-1-yl)thiazol-4-yl)benzo[d]thiazol-2-yl)(methylsulfonyl)methyl)-1,3,4-oxadiazol-2-yl)methyl) thiazolidine-2,4-dione], the IC50 was less than 10 nM.

For `CC(C)(C)OC(=O)N1CC(S(=O)(=O)C(c2nnc(CS(N)(=O)=O)o2)c2nc3ccc(-c4ccccc4)cc3s2)C1` (centres unmarked) [Example 38, tert-butyl 3-(((6-phenylbenzo[d]thiazol-2-yl)(5-(sulfamoylmethyl)-1,3,4-oxadiazol-2-yl)methyl)sulfonyl)azetidine-1-carboxylate], the IC50 was less than 10 nM.

Take `CS(=O)(=O)NCc1nnc(C(c2nc3ccc(-c4ccccc4)cc3s2)S(C)(=O)=O)o1` (centres unmarked) [Example 86, N-((5-((Methylsulfonyl)(6-phenylbenzo[d]thiazol-2-yl)methyl)-1,3,4-oxadiazol-2-yl)methyl)methanesulfonamide]: the IC50 amounted to 47 nM.

As to `NS(=O)(=O)Cc1nnc(C(c2nc3ccc(-c4ccccc4)cc3s2)S(=O)(=O)CCC(F)(F)F)o1` (centres unmarked) [Example 35], the IC50 was less than 10 nM.

For the molecule `NS(=O)(=O)NCc1nnc(C(c2nc3ccc(-c4ccccc4)cc3s2)S(=O)(=O)Cc2ccc(C(F)(F)F)cc2)o1` (centres unmarked) [Example 48, N-((5-((6-phenyl-1,3-benzothiazol-2-yl)((4-(trifluoromethyl)benzyl)sulfonyl)methyl)-1,3,4-oxadiazol-2-yl)methyl)sulfamide], the half-inhibitory concentration (IC50) was less than 10 nM.

For the molecule `CS(=O)(=O)C(c1nnc(CC2SC(=O)NC2=O)o1)c1nc2ccc(-c3ccccc3)cc2s1` (centres unmarked) [Example 31, 5-((5-((methylsulfonyl) (6-phenyl-1,3-benzothiazol-2-yl)methyl)-1,3,4-oxadiazol-2-yl)methyl)-1,3-thiazolidine-2,4-dione], the IC50 is less than 10 nM.

Consider `NS(=O)(=O)NCc1nnc(C(c2nc3ccc(-c4ccccc4)cc3s2)S(=O)(=O)CCN2C(=O)c3ccccc3C2=O)o1` (centres unmarked) [Example 52, N-[(5-{(6-phenyl-1,3-benzothiazol-2-yl) ([2-(1,3-dioxo-1,3-dihydro-2H-isoindol-2-yl)ethyl]sulfonyl)methyl}-1,3,4-oxadiazol-2-yl)methyl]sulfuric diamide], for which the IC50 was less than 10 nM.

For `NS(=O)(=O)NCc1nnc(C(c2nc3ccc(-c4ccccc4)cc3s2)S(=O)(=O)CC2CC2)o1` (centres unmarked) [Example 61, N-[(5-{6-phenyl-1,3-benzothiazol-2-yl [(cyclopropylmethyl)sulfonyl]methyl}-1,3,4-oxadiazol-2-yl)methyl]sulfuric diamide], the IC50 was less than 10 nM.

For `NS(=O)(=O)NCc1nnc(C(c2nc3ccc(-c4ccccc4)cc3s2)S(=O)(=O)Cc2cccc(Cl)c2)o1` (centres unmarked) [Example 73, N-((5-(((3-chlorobenzyl)sulfonyl)(6-phenyl-1,3-benzothiazol-2-yl)methyl)-1,3,4-oxadiazol-2-yl)methyl)sulfamide], the IC50 was less than 10 nM.

Consider `CC1(Cc2nnc(C(c3nc4ccc(-c5ccccc5)cc4s3)S(C)(=O)=O)o2)NC(=O)N(CC(F)(F)F)C1=O` (single isomer, unassigned; isomer a) [Example 27, 5-methyl-5-((5-(methylsulfonyl(6-phenylbenzo[d]thiazol-2-yl)methyl)-1,3,4-oxadiazol-2-yl)methyl)-3-(2,2,2-trifluoroethyl)imidazolidine-2,4-dione (Isomer A)], for which the concentration for half-maximal inhibition (IC50) is less than 10 nM.

As for `NS(=O)(=O)NCc1nnc(C(c2nc3ccc(-c4ccc(F)nc4)cc3s2)S(=O)(=O)Cc2ccc(F)nc2)o1` (centres unmarked) [Example 77, N-({5-[6-(6-fluoro-3-pyridinyl)-1,3-benzothiazol-2-yl({[6-fluoro-pyridin-3-yl]methyl}sulfonyl)methyl]-1,3,4-oxadiazol-2-yl}methyl)sulfuric diamide], the IC50 was 18 nM.

As to `CC(C)(C)OC(=O)NCc1nnc(C(c2nc3ccc(-c4ccccc4)cc3s2)S(C)(=O)=O)o1` (centres unmarked) [Example 83, tert-Butyl ((5-((methylsulfonyl)(6-phenylbenzo[d]thiazol-2-yl)methyl)-1,3,4-oxadiazol-2-yl)methyl)carbamate], the IC50 is less than 10 nM.

Take `CS(=O)(=O)C(c1nnc(CC2SC(=O)NC2=O)o1)c1nc2c(F)cc(-c3ccccc3)cc2s1` (centres unmarked) [Example 94, 5-((5-((4-fluoro-6-phenyl-benzo[d]thiazol-2-yl) (methylsulfonyl)methyl)-1,3,4-oxadiazol-2-yl)methyl)thiazolidine-2,4-dione]: the IC50 is less than 10 nM.

As for `Cc1noc(C)c1-c1ccc2nc(C(c3nnc(CC4SC(=O)NC4=O)o3)S(C)(=O)=O)sc2c1` (centres unmarked) [Example 19, 5-((5-((6-(3,5-dimethylisoxazol-4-yl)benzo[d]thiazol-2-yl)(methylsulfonyl)methyl)-1,3,4-oxadiazol-2-yl)methyl) thiazolidine-2,4-dione], the IC50 is less than 10 nM.

With `CC1(Cc2nnc(C(c3nc4ccc(-c5ccc(F)nc5)cc4s3)S(C)(=O)=O)o2)SC(=O)NC1=O` (single isomer, unassigned; isomer a) [Example 17, 5-((5-((6-(6-fluoropyridin-3-yl)benzo[d]thiazol-2-yl)(methylsulfonyl)methyl)-1,3,4-oxadiazol-2-yl)methyl)-5-methylthiazolidine-2,4-dione (Isomer A)], the IC50 is less than 10 nM.

As for `O=C(OCc1ccccc1)N1CCC(S(=O)(=O)C(c2nnc(CS(=O)(=O)O)o2)c2nc3ccc(-c4ccccc4)cc3s2)CC1` (centres unmarked) [Example 32, (5-(((1-((benzyloxy)carbonyl)-4-piperidinyl)sulfonyl)(6-phenyl-1,3-benzothiazol-2-yl)methyl)-1,3,4-oxadiazol-2-yl)methanesulfonic acid], the IC50 is less than 10 nM.

With `CC(C)S(=O)(=O)C(c1nnc(CC2SC(=O)NC2=O)o1)c1nc2c(F)cc(-c3ccccc3)cc2s1` (centres unmarked) [Example 95, 5-((5-((4-fluoro-6-phenyl-benzo[d]thiazol-2-yl) (isopropylsulfonyl)methyl)-1,3,4-oxadiazol-2-yl)methyl)thiazolidine-2,4-dione], the concentration for half-maximal inhibition (IC50) is less than 10 nM.

On to `CC(O)(c1nnc(CNS(N)(=O)=O)o1)c1nc2ccc(-c3ccc(F)nc3)cc2s1` (centres unmarked) [Reference 4, N-((5-(1-(6-(6-Fluoro-3-pyridinyl)-1,3-benzothiazol-2-yl)-1-hydroxyethyl)-1,3,4-oxadiazol-2-yl)methyl)sulfamide, reference compound], for which the IC50 is 14900 nM.

On to `NS(=O)(=O)NCc1nnc(C(c2nc3ccc(-c4ccccc4)cc3s2)S(=O)(=O)Cc2cccc(C(F)(F)F)c2)o1` (centres unmarked) [Example 62, N-((5-(((3-(trifluoromethyl)benzyl)sulfonyl) (6-phenyl-1,3-benzothiazol-2-yl)methyl)-1,3,4-oxadiazol-2-yl)methyl)sulfamide], for which the IC50 is less than 10 nM.

`CCCS(=O)(=O)C(c1nnc(CNS(N)(=O)=O)o1)c1nc2ccc(-c3ccccc3)cc2s1` (centres unmarked) [Example 66, N-({5-[(propylsulfonyl) (6-phenyl-1,3-benzothiazol-2-yl)methyl]-1,3,4-oxadiazol-2-yl}methyl) sulfuric diamide]: the half-inhibitory concentration (IC50) is less than 10 nM.

Turning to `CN1CCN(C(=O)c2ccc(-c3ccc4nc(C(c5nnc(CNS(N)(=O)=O)o5)S(C)(=O)=O)sc4c3)cc2)CC1` (centres unmarked) [Example 80, N-((5-((6-(4-((4-methyl-1-piperazinyl)carbonyl)phenyl)-1,3-benzothiazol-2-yl)(methylsulfonyl)methyl)-1,3,4-oxadiazol-2-yl)methyl)sulfamide], the IC50 is 57 nM.

On to `CS(=O)(=O)C(c1nnc(CC2SC(=O)NC2=O)o1)c1nc2ccc(-c3ccc(C(=O)N4CCOCC4)cc3)cc2s1` (centres unmarked) [Example 2, 5-((5-((methylsulfonyl)(6-(4-(4-morpholinylcarbonyl)phenyl)-1,3-benzothiazol-2-yl)methyl)-1,3,4-oxadiazol-2-yl)methyl)-1,3-thiazolidine-2,4-dione], for which the IC50 is less than 10 nM.

Take `O=S(=O)(O)Cc1nnc(C(c2nc3ccc(-c4ccccc4)cc3s2)S(=O)(=O)Cc2ccc(F)cc2)o1` (centres unmarked) [Example 34, (5-(((4-fluorobenzyl)sulfonyl)(6-phenylbenzo [d]thiazol-2-yl)methyl)-1,3,4-oxadiazol-2-yl)methanesulfonic acid]: the IC50 came to 131 nM.
